Measured values: patent publication US7625950B2, “Amino-propanol derivatives as sphingosine-1-phosphate receptor modulator” (Novartis AG, priority 2003, dated 2009)
Where a name gives a salt, the structure may show the parent alone.

Tests used:
[1] = tested on: peripheral blood lymphocytes; experiment: Blood lymphocyte depletion; format: in vivo; conditions: rats, p.o.
Protocol: B. In Vivo: Blood Lymphocyte Depletion
A compound of formula I or the vehicle is administered orally by gavage to rats. Tail blood for hematological monitoring is obtained on day −1 to give the baseline individual values, and at 2, 6, 24, 48 and 72 hours after application.

[2] = biological target: T1, human S1P receptor EDG-8 (S1P5) (Homo sapiens, UniProt Q9H228); experiment: S1P receptor profiling, GTP[γ-35S] binding SPA, S1P5; format: biochemical; conditions: for S1P5 mode of action (Agon. = agonist): GTP[γ-35S] binding SPA; for EC50: GTP[γ-35S] binding to membrane protein of transfected CHO or RH7777 cells, SPA
T1 construct: expressed in transfected cells
Protocol: (§1) Sphingosine-1-Phosphate (S1P) Receptor Profiling
(§2) Agonist activities of compounds are tested on the human SIP receptors EDG-1 (S1P1), EDG-3 (S1P3), EDG-5 (S1P2), EDG-6 (S1P4) and EDG-8 (S1P5). […] The assay technology used is SPA (scintillation proximity based assay). Briefly, DMSO dissolved compounds are serially diluted and added to SPA-bead (Amersham-Pharmacia) immobilised SIP receptor expressing membrane protein (10-20 μg/well) in the presence of 50 mM Hepes, 100 mM NaCl, 10 mM MgCl2, 10 μM GDP, 0.1% fat free BSA and 0.2 nM GTP [γ-^35S] (1200 Ci/mmol). After incubation in 96 well microtiterplates at RT for 120 min, unbound GTP [γ-^35S] is separated by a centrifugation step. Luminescence of SPA beads triggered by membrane bound GTP [γ-^35S] is quantified with a TOP count plate reader (Packard). EC50s are calculated using standard curve fitting software. In this assay, the compounds of formula I have a binding affinity to S1P1 receptor <50 nM.

[3] = biological target: T2, human S1P receptor EDG-3 (S1P3) (Homo sapiens, UniProt Q99500); experiment: S1P receptor profiling, GTP[γ-35S] binding SPA, S1P3; format: biochemical; conditions: for S1P3 mode of action (Agon. = agonist): GTP[γ-35S] binding SPA; for EC50: GTP[γ-35S] binding to membrane protein of transfected CHO or RH7777 cells, SPA
T2 construct: expressed in transfected cells
Protocol: as §1, §2

[4] = biological target: T3, human S1P receptor EDG-6 (S1P4) (Homo sapiens, UniProt O95977); experiment: S1P receptor profiling, GTP[γ-35S] binding SPA, S1P4; format: biochemical; conditions: for EC50: GTP[γ-35S] binding to membrane protein of transfected CHO or RH7777 cells, SPA; for S1P4 mode of action (Agon. = agonist): GTP[γ-35S] binding SPA
T3 construct: expressed in transfected cells
T3 sequence (O95977 1-384): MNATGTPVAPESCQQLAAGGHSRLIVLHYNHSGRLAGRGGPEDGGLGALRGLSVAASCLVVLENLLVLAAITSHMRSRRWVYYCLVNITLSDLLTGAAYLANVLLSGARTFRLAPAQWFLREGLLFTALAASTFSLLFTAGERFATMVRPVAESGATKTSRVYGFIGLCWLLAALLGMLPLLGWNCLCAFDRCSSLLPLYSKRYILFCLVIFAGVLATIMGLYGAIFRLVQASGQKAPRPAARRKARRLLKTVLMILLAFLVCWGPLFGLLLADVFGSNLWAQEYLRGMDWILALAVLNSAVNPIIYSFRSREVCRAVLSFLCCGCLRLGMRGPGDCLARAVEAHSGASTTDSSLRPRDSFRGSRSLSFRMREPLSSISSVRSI
Protocol: as §1, §2

[5] = biological target: T4, human S1P receptor EDG-1 (S1P1) (Homo sapiens, UniProt P21453); experiment: S1P receptor profiling, GTP[γ-35S] binding SPA, S1P1; format: biochemical; conditions: for S1P1 mode of action (Agon. = agonist): GTP[γ-35S] binding SPA; for EC50: GTP[γ-35S] binding to membrane protein of transfected CHO or RH7777 cells, SPA
T4 construct: expressed in transfected cells
Protocol: as §1, §2

T1 sequence (Q9H228 whole entry): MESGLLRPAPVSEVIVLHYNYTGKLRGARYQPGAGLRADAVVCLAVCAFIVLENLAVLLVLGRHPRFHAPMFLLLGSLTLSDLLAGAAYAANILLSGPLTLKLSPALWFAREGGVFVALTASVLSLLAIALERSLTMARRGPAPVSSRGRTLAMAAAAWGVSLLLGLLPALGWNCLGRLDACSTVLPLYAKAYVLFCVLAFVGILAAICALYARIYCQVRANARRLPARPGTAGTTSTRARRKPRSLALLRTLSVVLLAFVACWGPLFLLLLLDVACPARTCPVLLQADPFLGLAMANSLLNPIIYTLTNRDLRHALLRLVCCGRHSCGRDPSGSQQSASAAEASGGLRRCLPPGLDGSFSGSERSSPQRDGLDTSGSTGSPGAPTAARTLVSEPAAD
T2 sequence (Q99500 whole entry): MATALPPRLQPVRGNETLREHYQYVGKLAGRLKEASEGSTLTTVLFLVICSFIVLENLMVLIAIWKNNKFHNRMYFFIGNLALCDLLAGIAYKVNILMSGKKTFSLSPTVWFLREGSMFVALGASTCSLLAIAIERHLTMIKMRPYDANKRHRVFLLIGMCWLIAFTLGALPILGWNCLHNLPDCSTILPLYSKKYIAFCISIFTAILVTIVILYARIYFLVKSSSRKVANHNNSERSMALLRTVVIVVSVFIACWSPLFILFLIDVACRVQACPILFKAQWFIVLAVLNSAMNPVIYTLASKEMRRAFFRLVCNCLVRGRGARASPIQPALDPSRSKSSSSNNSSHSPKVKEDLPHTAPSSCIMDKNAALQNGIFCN
T4 sequence (P21453 whole entry): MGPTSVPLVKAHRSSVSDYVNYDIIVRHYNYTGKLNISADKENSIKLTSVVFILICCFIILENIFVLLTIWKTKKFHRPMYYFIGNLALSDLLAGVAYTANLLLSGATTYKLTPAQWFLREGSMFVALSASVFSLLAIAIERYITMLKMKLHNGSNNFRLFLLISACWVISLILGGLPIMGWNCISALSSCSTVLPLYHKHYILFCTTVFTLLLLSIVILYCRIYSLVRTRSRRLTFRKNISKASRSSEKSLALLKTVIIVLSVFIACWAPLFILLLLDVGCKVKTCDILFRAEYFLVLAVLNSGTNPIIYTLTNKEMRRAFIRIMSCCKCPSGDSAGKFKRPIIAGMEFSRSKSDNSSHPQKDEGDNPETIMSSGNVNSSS

| Structure (SMILES) | dose giving depletion of peripheral blood lymphocytes by more than 50% ([1]; after 6 h) [mg/kg] | dose giving depletion of peripheral blood lymphocytes by more than 50% ([1]; after 24 h) [mg/kg] | S1P5 mode of action (Agon. = agonist) [2] | EC50 [2] [nM] | S1P3 mode of action (Agon. = agonist) [3] | EC50 [3] [nM] | EC50 [4] [nM] | S1P1 mode of action (Agon. = agonist) [5] | EC50 [5] [nM] | S1P4 mode of action (Agon. = agonist) [4] | dose giving depletion of peripheral blood lymphocytes by more than 50% ([1]; after 48 h) [mg/kg] |
| --- | --- | --- | --- | --- | --- | --- | --- | --- | --- | --- | --- |
| C[C@](N)(CO)CCc1ccc(OCCOc2ccc(Cl)cc2)cc1 [Example 1, (R)-2-Amino-4-{4-[2-(4-chloro-phenoxy)-ethoxy]-phenyl}-2-methyl-butan-1-ol Hydrochloride] | 0.03 | 0.02 | – | – | – | – | – | – | – | – | – |
| C[C@@](N)(CCc1ccc(OCCOc2ccc(Cl)cc2)cc1)COP(=O)(O)O [Example 36, (R)-Mono-(2-amino-4-{4-[2-(4-chloro-phenoxy)-ethoxy]-phenyl}-2-methyl-butyl) phosphate] | – | – | Agon. | 14 | Agon. | 15 | > 1000 | Agon. | 0.6 | – | – |
| C[C@@](N)(CCc1ccc(OCCOc2ccccc2)cc1)COP(=O)(O)O [Example 38] | – | – | Agon. | 11.7 | – | > 1000 | 28 | Agon. | 8.6 | Agon. | – |
| C[C@@](N)(CCc1ccc(OCCOc2cccc(F)c2F)cc1)COP(=O)(O)O [Example 42] | – | – | Agon. | 6.3 | – | > 1000 | 8.2 | Agon. | 5.5 | Agon. | – |
| COc1cc(CC[C@@](C)(N)COP(=O)(O)O)ccc1OCCOc1ccccc1 [Example 43] | – | – | Agon. | 0.5 | Agon. | 340 | 43 | Agon. | 8 | Agon. | – |
| COc1ccc(Br)cc1OCCCOc1ccc(CC[C@@](C)(N)CO)cc1 [Example 53, (R)-2-Amino-4-{4-[3-(5-bromo-2-methoxy-phenoxy)-propoxy]-phenyl}-2-methyl-butan-1-ol Hydrochloride] | 0.1 | – | – | – | – | – | – | – | – | – | 0.5 |
| COc1ccc(Br)cc1OCCCOc1ccc(CCC(N)(CO)COP(=O)(O)O)cc1 (centres unmarked) [Example 56] | – | – | Agon | 16.5 | Agon. | > 10000 | 1.6 | Agon. | 8.5 | Agon. | – |
